# Like-named read-outs stand apart in the source and are kept apart here.
# Tests used:
# PARP [1] = target: T1, PARP (Homo sapiens, UniProt P09874); details: reported values, see footnote; read-out: IC50 cited in the Literature; cited from earlier work
# T1 construct: purchased R&D Systems, Inc. TA5334
# human PARP-1 = target: T2, human PARP-1 (Homo sapiens, UniProt P09874); assay: Biotin-Avidin PARP assay (biotinylated NAD auto-ribosylation, immobilized PARP); type: biochemical
# T2 construct: purchased Trevigen 4667-250-01
# Experimental: ELISA plates (96-well) were coated with recombinant human PARP-1 overnight at 4° C.
# Prior to the activity assay, the plates were washed three times in PBS-T.
# The control reactions were carried out in the absence of sheared DNA in order to determine background activity for the reaction(s). […] The optical density for each sample was measured at 410 nm.
# The inhibitors were first dissolved in DMSO and then serially diluted in DMSO to create stock solutions which were added to the auto-ribosylation buffer to achieve the desired range of final concentrations of the inhibitors in the nanomolar to millimolar range.
# PARP [2] = target: T1, PARP; assay: commercially available [32P] NAD-based PARP assay (R&D Systems); type: biochemical; details: [32P]-NAD based kit
# Experimental: The present method was conducted in the presence of known PARP inhibitors of varying potencies, tested at a range of concentrations. The experiment was conducted to determine if the IC50 values generated by the assay of the present invention were in agreement with previously reported IC50 values for these compounds and IC50 values generated by a commercially available [^32P] NAD-based PARP assay (R&D Systems, Inc., Minneapolis, Minn., Cat#TA5334). [^32P]-NAD was obtained from Amersham Pharmacia Biotech, Piscataway, N.J.
# T1 sequence (P09874 whole entry): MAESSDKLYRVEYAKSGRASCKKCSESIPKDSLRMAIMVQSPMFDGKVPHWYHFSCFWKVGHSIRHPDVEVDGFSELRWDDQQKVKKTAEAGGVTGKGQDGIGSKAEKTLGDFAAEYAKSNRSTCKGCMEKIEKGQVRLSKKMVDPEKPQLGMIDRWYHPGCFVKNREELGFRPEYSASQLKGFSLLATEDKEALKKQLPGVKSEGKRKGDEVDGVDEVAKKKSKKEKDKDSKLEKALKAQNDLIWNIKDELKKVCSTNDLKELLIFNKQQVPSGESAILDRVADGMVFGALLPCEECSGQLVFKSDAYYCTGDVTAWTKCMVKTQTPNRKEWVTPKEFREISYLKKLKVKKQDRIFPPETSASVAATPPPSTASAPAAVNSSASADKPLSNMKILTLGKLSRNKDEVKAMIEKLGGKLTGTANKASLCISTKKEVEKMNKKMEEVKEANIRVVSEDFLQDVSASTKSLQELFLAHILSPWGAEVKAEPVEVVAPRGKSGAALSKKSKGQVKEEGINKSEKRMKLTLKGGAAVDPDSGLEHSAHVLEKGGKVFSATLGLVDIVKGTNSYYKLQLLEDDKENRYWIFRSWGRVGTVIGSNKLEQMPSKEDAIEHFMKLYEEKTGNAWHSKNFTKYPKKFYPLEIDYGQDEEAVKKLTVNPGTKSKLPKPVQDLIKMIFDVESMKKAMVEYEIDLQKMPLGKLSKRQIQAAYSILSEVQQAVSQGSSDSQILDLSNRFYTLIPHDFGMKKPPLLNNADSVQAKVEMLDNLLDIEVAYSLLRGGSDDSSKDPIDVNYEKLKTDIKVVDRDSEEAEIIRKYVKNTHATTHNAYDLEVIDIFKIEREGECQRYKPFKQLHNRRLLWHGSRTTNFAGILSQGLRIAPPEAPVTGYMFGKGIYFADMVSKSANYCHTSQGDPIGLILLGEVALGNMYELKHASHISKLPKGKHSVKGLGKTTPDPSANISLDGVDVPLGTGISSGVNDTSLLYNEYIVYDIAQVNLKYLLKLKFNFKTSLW
# T2 sequence (P09874 whole entry): as above
Compound,IC50 (PARP [1]) [nM],IC50 (human PARP-1) [nM],IC50 (PARP [2]) [nM],"IC50 (human PARP-1; PARP-1 coated on plates overnight at 4° C., 25 μM biotinylated NAD, 100 μM unlabelled NAD, sheared DNA, read-out: Biotin Avidin PARP (IC50)) [nM]"
"Cc1nc2c(O)cccc2c(=O)[nH]1 [Compound A, 8-hydroxy-2-methyl-quinazolin-4-[3H]-one]",400,460,318,–
"NC(=O)c1cccc2cccc(C(=O)O)c12 [Compound B, 8-carboximido-napthalene-1-carboxylic acid]",250,–,334,329

# Reference: patent publication US20020142334A1, “Methods of detecting poly(ADP-ribose) polymerase enzymatic activity” (priority 2001, published 2002)
